Earlier results in article PMC9516332 (Frontiers in Oncology, 2022).
Like-named read-outs stand apart in the source and are kept apart here.

Key:
Conditions in all cases: cited from earlier work
[1] = target: panel of 255 wild-type kinases (Homo sapiens, UniProt Q9HC98)
[2] = target: T1, panel of 255 wild-type kinases (Homo sapiens, UniProt P51817)
T1 sequence (P51817 1-358): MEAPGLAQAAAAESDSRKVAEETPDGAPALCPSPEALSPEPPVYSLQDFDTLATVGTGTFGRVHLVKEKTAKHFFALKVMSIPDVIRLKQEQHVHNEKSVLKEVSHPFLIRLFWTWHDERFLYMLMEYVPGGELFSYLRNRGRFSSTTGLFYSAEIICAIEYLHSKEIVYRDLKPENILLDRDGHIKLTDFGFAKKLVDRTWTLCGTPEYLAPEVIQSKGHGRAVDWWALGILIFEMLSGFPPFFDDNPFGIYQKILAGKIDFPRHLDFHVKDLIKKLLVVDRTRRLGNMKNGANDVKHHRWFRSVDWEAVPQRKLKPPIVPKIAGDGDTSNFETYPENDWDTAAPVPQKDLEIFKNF

[3] = target: panel of 255 wild-type kinases (Homo sapiens, UniProt Q13164)
[4] = target: panel of 255 wild-type kinases (Homo sapiens, UniProt Q9H2X6)
[5] = target: T2, panel of 255 wild-type kinases (Homo sapiens, UniProt O00141)
T2 sequence (O00141 1-431): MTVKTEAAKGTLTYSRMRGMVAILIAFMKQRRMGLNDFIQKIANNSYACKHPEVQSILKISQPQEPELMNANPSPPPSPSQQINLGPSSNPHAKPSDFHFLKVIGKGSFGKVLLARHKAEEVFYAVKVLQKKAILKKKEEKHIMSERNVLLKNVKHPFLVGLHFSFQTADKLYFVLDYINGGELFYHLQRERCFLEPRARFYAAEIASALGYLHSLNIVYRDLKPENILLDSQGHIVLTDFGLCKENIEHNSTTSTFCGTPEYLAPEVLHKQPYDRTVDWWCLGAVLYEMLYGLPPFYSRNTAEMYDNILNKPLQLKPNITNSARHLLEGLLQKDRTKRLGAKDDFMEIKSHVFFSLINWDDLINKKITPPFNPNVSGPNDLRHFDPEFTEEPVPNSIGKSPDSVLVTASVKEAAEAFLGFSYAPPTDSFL

[6] = target: T3, panel of 255 wild-type kinases (Homo sapiens, UniProt P15735)
T3 sequence (P15735 1-406): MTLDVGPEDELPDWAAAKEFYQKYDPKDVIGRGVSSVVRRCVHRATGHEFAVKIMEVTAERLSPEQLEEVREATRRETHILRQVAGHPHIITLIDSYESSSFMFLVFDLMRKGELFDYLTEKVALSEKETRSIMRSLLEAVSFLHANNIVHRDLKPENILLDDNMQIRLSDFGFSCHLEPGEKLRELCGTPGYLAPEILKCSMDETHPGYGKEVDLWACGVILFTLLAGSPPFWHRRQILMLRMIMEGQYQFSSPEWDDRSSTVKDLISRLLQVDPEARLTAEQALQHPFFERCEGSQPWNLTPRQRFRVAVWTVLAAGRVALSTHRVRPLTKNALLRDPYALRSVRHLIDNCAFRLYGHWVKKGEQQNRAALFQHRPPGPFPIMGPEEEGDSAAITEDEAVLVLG

[7] = target: panel of 255 wild-type kinases (Homo sapiens, UniProt P35916)
[8] = target: panel of 255 wild-type kinases (Homo sapiens, UniProt P06213)
[9] = NEK6, 1 µmol/L single concentration, ref DOI: 10.1158/1535-7163.MCT-18-0877
[10] = kinase PRKX, 1 µmol/L single concentration, ref DOI: 10.1158/1535-7163.MCT-18-0877
[11] = kinase Erk5, 1 µmol/L single concentration, ref DOI: 10.1158/1535-7163.MCT-18-0877
[12] = kinase HIPK2, 1 µmol/L single concentration, ref DOI: 10.1158/1535-7163.MCT-18-0877
[13] = kinase SGK, 1 µmol/L single concentration, ref DOI: 10.1158/1535-7163.MCT-18-0877
[14] = kinase PHKG2, 1 µmol/L single concentration, ref DOI: 10.1158/1535-7163.MCT-18-0877
[15] = kinase FLT4, 1 µmol/L single concentration, ref DOI: 10.1158/1535-7163.MCT-18-0877
[16] = kinase INSR, 1 µmol/L single concentration, ref DOI: 10.1158/1535-7163.MCT-18-0877
[17] = NEK6, 1 µmol/L single concentration, ref DOI: 10.1371/journal.pone.0092146
[18] = kinase PRKX, 1 µmol/L single concentration, ref DOI: 10.1371/journal.pone.0092146
[19] = kinase Erk5, 1 µmol/L single concentration, ref DOI: 10.1371/journal.pone.0092146
[20] = kinase HIPK2, 1 µmol/L single concentration, ref DOI: 10.1371/journal.pone.0092146
[21] = kinase SGK, 1 µmol/L single concentration, ref DOI: 10.1371/journal.pone.0092146
[22] = kinase PHKG2, 1 µmol/L single concentration, ref DOI: 10.1371/journal.pone.0092146
[23] = kinase FLT4, 1 µmol/L single concentration, ref DOI: 10.1371/journal.pone.0092146
[24] = kinase INSR, 1 µmol/L single concentration, ref DOI: 10.1371/journal.pone.0092146

Structure (SMILES)	%-inhibition, NEK6 [1, 9] [%]	%-inhibition at 1 µmol/L, PRKX [2, 10] [%]	%-inhibition at 1 µmol/L, Erk5 [3, 11] [%]	%-inhibition at 1 µmol/L, HIPK2 [4, 12] [%]	%-inhibition at 1 µmol/L, SGK [5, 13] [%]	%-inhibition at 1 µmol/L, PHKG2 [6, 14] [%]	%-inhibition at 1 µmol/L, FLT4 [7, 15] [%]	%-inhibition at 1 µmol/L, INSR [8, 16] [%]	%-inhibition, NEK6 [1, 17] [%]	%-inhibition at 1 µmol/L, PRKX [2, 18] [%]	%-inhibition at 1 µmol/L, Erk5 [3, 19] [%]	%-inhibition at 1 µmol/L, HIPK2 [4, 20] [%]	%-inhibition at 1 µmol/L, SGK [5, 21] [%]	%-inhibition at 1 µmol/L, PHKG2 [6, 22] [%]	%-inhibition at 1 µmol/L, FLT4 [7, 23] [%]	%-inhibition at 1 µmol/L, INSR [8, 24] [%]	further results
CC#CC(=O)N1CCC[C@H]1c1nc(-c2ccc(C(=O)Nc3ccccn3)cc2)c2c(N)nccn12 [acalabrutinib]	-5.54	-4.59	-2.12	-11	-5	0.00605	1.41	-4.67	–	–	–	–	–	–	–	–	–
CCc1cc2c(cc1N1CCC(N3CCOCC3)CC1)C(C)(C)c1[nH]c3cc(C#N)ccc3c1C2=O [alectinib]	1.43	1.81	-1.24	8	12	75	39	83	–	–	–	–	–	–	–	–	–
COc1cc(N2CCC(N3CCN(C)CC3)CC2)ccc1Nc1ncc(Cl)c(Nc2ccccc2P(C)(C)=O)n1 [brigatinib]	–	–	–	–	–	–	–	–	–	–	–	–	–	–	–	–	%-inhibition, NEK6 [1]: 0.534%; %-inhibition at 1 µmol/L, PRKX [2]: 47%; %-inhibition at 1 µmol/L, Erk5 [3]: 96%; %-inhibition at 1 µmol/L, HIPK2 [4]: 9%; %-inhibition at 1 µmol/L, SGK [5]: 4.76%; %-inhibition at 1 µmol/L, PHKG2 [6]: 96%; %-inhibition at 1 µmol/L, FLT4 [7]: 99%; %-inhibition at 1 µmol/L, INSR [8]: 101%
Cc1cc(Nc2ncc(Cl)c(Nc3ccccc3S(=O)(=O)C(C)C)n2)c(OC(C)C)cc1C1CCNCC1 [ceritinib]	0.593	11	94	37	2	83	75	102	–	–	–	–	–	–	–	–	–
O=C(c1ccc(F)c(F)c1Nc1ccc(I)cc1F)N1CC(O)([C@@H]2CCCCN2)C1 [cobimetinib]	1.81	2.17	1.71	1.68	-19	2.22	-6	2.48	–	–	–	–	–	–	–	–	–
C[C@@H](Oc1cc(-c2cnn(C3CCNCC3)c2)cnc1N)c1c(Cl)ccc(F)c1Cl [crizotinib]	–	–	–	–	–	–	–	–	-2.72	-7	45	-6.53	1.46	10	48	84	–
CC(C)(C)c1nc(-c2cccc(NS(=O)(=O)c3c(F)cccc3F)c2F)c(-c2ccnc(N)n2)s1 [dabrafenib]	–	–	–	–	–	–	–	–	-3	-1.55	0.144	42	4	2	85	7.51	–
C=CC(=O)N1CCC[C@@H](n2nc(-c3ccc(Oc4ccccc4)cc3)c3c(N)ncnc32)C1 [ibrutinib]	0.77	0.66	4	2	-21	0.816	91	9.51	–	–	–	–	–	–	–	–	–
CO[C@@H]1[C@H](N(C)C(=O)c2ccccc2)C[C@H]2O[C@]1(C)n1c3ccccc3c3c4c(c5c6ccccc6n2c5c31)C(=O)NC4 [midostaurin]	-8	97	-1.27	34	31	67	99	35	–	–	–	–	–	–	–	–	–
C=CC(=O)Nc1cc(Nc2nccc(-c3cn(C)c4ccccc34)n2)c(OC)cc1N(C)CCN(C)C [osimertinib]	0.319	1.37	10	40	-11	11	40	86	–	–	–	–	–	–	–	–	–
CC(=O)Nc1cccc(-n2c(=O)n(C3CC3)c(=O)c3c(Nc4ccc(I)cc4F)n(C)c(=O)c(C)c32)c1 [trametinib]	–	–	–	–	–	–	–	–	-0.324	-1.19	-2.55	0.155	0.217	2.81	1.51	-30	–
CCCS(=O)(=O)Nc1ccc(F)c(C(=O)c2c[nH]c3ncc(-c4ccc(Cl)cc4)cc23)c1F [vemurafenib]	–	–	–	–	–	–	–	–	-1.43	-3.45	0.709	-5	-0.122	-4.37	24	17	–
